The text below walks through data of PubChem BioAssay (NCI).

Among the test systems are HCT-116 colon; CCRF-CEM leukemia; CAKI-1 renal; SF-295 CNS; SNB-19 CNS; M14 melanoma; EKVX NSCLC; NCI-H226 lung; SR leukemia; OVCAR-3 ovarian.
Assay in all cases: NCI anticancer screen, dose series, 48 h

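Where inhibition never reached the appropriate level, the endpoint shown equals the highest concentration tested. Otherwise, values were interpolated linearly from a five-concentration, 48-hour dose response in 96-well plates. At the GI50, growth is halved. At the TGI there is no net growth.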 Some results are limits rather than exact numbers.

As to `COc1cc2ccn3c4cc(OC)c(OC)cc4cc3c2cc1OC`, the TGI in the experiment with HCT-116 colon, in the experiment with CCRF-CEM leukemia, in the experiment with CAKI-1 renal, with SF-295 CNS, in the experiment on SNB-19 CNS and in the experiment with M14 melanoma was over 100 µM each time. Besides, the TGI with EKVX NSCLC, with NCI-H226 lung, with SR leukemia and in the experiment on OVCAR-3 ovarian was over 100 µM each time.
Take `CC1=C(C#N)C(N)=C2C(C)=C(C#N)C(N)=C12`: the TGI in the experiment on HCT-116 colon, with CCRF-CEM leukemia, in the experiment on CAKI-1 renal, in the experiment on SF-295 CNS, with SNB-19 CNS and with M14 melanoma was over 100 µM throughout. In addition, the TGI in the experiment with EKVX NSCLC, in the experiment on NCI-H226 lung, in the experiment on SR leukemia and with OVCAR-3 ovarian was over 100 µM in each case.
In the case of `CC1CCC(O)C(C(O)CC2CC(=O)N(C)C(=O)C2)C1` (stereo not given), the TGI in the experiment with HCT-116 colon, with CCRF-CEM leukemia, in the experiment with CAKI-1 renal, in the experiment with SF-295 CNS, with SNB-19 CNS and with M14 melanoma was over 100 µM throughout. Besides, the TGI in the experiment with EKVX NSCLC, in the experiment with NCI-H226 lung, in the experiment with SR leukemia and with OVCAR-3 ovarian was over 100 µM in each case.
For the molecule `O=C(N[C@@H]1CCCc2ccccc21)[C@H](CCC(=O)N1CCN(C2CCCCC2)CC1)N1C(=O)[C@@H](N2C(=O)OC[C@@H]2c2ccccc2)[C@H]1/C=C/c1ccccc1`, the GI50 in the experiment on HCT-116 colon was 1.8 µM; in the experiment on CCRF-CEM leukemia, 2.83 µM; in the experiment on CAKI-1 renal, 1.92 µM; with SF-295 CNS it was 2.34 µM; in the experiment with SNB-19 CNS, 3.66 µM; in the experiment with M14 melanoma, 1.47 µM. In addition, the GI50 with EKVX NSCLC was 2.52 µM; in the experiment on NCI-H226 lung, 4.29 µM; in the experiment on SR leukemia, 2.68 µM; with OVCAR-3 ovarian, 1.72 µM. Also, the TGI was 4.68 µM in the experiment with HCT-116 colon; 8.87 µM with CCRF-CEM leukemia; 6.8 µM in the experiment with CAKI-1 renal; 7.57 µM in the experiment on SF-295 CNS; 25.2 µM in the experiment with SNB-19 CNS; 3.31 µM in the experiment with M14 melanoma. For the same molecule, the TGI in the experiment with EKVX NSCLC was over 100 µM; in the experiment with NCI-H226 lung, 18.4 µM; with SR leukemia, over 100 µM; with OVCAR-3 ovarian, 3.81 µM.
`c1ccc2c(c1)nc(NCCN1CCNCC1)c1c3ccccc3[nH]c21`: the GI50 was 0.165 µM in the experiment with HCT-116 colon; 0.086 µM in the experiment with CCRF-CEM leukemia; 0.454 µM in the experiment with CAKI-1 renal; 0.618 µM with SF-295 CNS; 0.381 µM with SNB-19 CNS; 1.24 µM in the experiment with M14 melanoma. Further, the GI50 in the experiment with EKVX NSCLC was 0.742 µM; with NCI-H226 lung it was 1.2 µM; in the experiment on SR leukemia, 0.226 µM; in the experiment on OVCAR-3 ovarian, 0.413 µM. In addition, the TGI in the experiment on HCT-116 colon was determined as 1.42 µM; in the experiment on CCRF-CEM leukemia, 1.82 µM; in the experiment on CAKI-1 renal, 2.81 µM; in the experiment on SF-295 CNS, 2.21 µM; in the experiment on SNB-19 CNS, 3.15 µM; with M14 melanoma it was 2.81 µM. In addition, the TGI is 4.38 µM in the experiment with EKVX NSCLC, 3.91 µM in the experiment with NCI-H226 lung, 1.33 µM in the experiment with SR leukemia and 2.51 µM with OVCAR-3 ovarian.
As to `Cc1ccc(NCSc2ccc(Cl)cc2)cc1`, the GI50 with HCT-116 colon is 55.4 µM; in the experiment on CCRF-CEM leukemia it was 0.995 µM; in the experiment on CAKI-1 renal it was 5.51 µM; in the experiment with SF-295 CNS, 24.9 µM; with SNB-19 CNS it was 46.9 µM; in the experiment on M14 melanoma, 77.1 µM. Besides, the GI50 was 31.4 µM with EKVX NSCLC, 44.7 µM in the experiment with NCI-H226 lung, over 100 µM in the experiment on SR leukemia and 9.22 µM in the experiment with OVCAR-3 ovarian. Also, the TGI with HCT-116 colon, in the experiment with CCRF-CEM leukemia, in the experiment with CAKI-1 renal, in the experiment on SF-295 CNS, in the experiment on SNB-19 CNS and in the experiment with M14 melanoma was over 100 µM throughout. In addition, the TGI in the experiment with EKVX NSCLC, in the experiment on NCI-H226 lung, in the experiment with SR leukemia and in the experiment on OVCAR-3 ovarian was over 100 µM throughout.
For the molecule `Oc1cccc(-c2nc3ccccc3s2)c1`, the TGI in the experiment with HCT-116 colon is over 100 µM; with CCRF-CEM leukemia it was over 100 µM; with CAKI-1 renal, 66 µM; with SF-295 CNS, 86.7 µM; with SNB-19 CNS, over 100 µM; in the experiment with M14 melanoma, 60.4 µM. The TGI with EKVX NSCLC is 42.7 µM; in the experiment on NCI-H226 lung, 73 µM; in the experiment with SR leukemia, over 100 µM; in the experiment on OVCAR-3 ovarian, over 100 µM.
As for `COc1ccc2cccc(C(=N)c3ccc(C)c4c3CCC4)c2c1`, the TGI was found to be 15.9 µM in the experiment with HCT-116 colon; 26.6 µM in the experiment with CCRF-CEM leukemia; 16.1 µM in the experiment with CAKI-1 renal; 17.7 µM in the experiment with SF-295 CNS; 23.3 µM in the experiment with SNB-19 CNS; 18.6 µM with M14 melanoma. Moreover, the TGI in the experiment on EKVX NSCLC turned out to be 30.1 µM; with NCI-H226 lung, 26.9 µM; with SR leukemia, 9.03 µM; in the experiment on OVCAR-3 ovarian, 17.6 µM.
With `Nc1ncnc2occ(-c3ccc(NC(=O)Nc4cc(C(F)(F)F)cc(C(F)(F)F)c4)cc3)c12`, the GI50 in the experiment with HCT-116 colon is 2.63 µM; in the experiment on CCRF-CEM leukemia, 4.5 µM; in the experiment on CAKI-1 renal, 2.6 µM; in the experiment on SF-295 CNS, 2.72 µM; with SNB-19 CNS it was 4.1 µM; in the experiment on M14 melanoma, 3.09 µM. For the same molecule, the GI50 in the experiment on EKVX NSCLC was 3.16 µM; in the experiment on NCI-H226 lung, 0.584 µM; with SR leukemia it was 2.03 µM; in the experiment on OVCAR-3 ovarian it was 3.24 µM. For the same molecule, the TGI was 5.64 µM in the experiment with HCT-116 colon; 19.2 µM in the experiment on CCRF-CEM leukemia; 10 µM in the experiment with CAKI-1 renal; 6.53 µM in the experiment with SF-295 CNS; 9.54 µM in the experiment on SNB-19 CNS; 6.4 µM in the experiment on M14 melanoma. Also, the TGI in the experiment with EKVX NSCLC came out at 8.07 µM; in the experiment on NCI-H226 lung, 4.53 µM; in the experiment on SR leukemia, 15.2 µM; with OVCAR-3 ovarian it was 6.71 µM.
`Brc1ccc2c(c1)C1(c3cc(Br)ccc3-2)c2cc(Br)ccc2-c2ccc(Br)cc21`: the TGI with HCT-116 colon, in the experiment on CCRF-CEM leukemia, in the experiment with CAKI-1 renal, in the experiment with SF-295 CNS, in the experiment on SNB-19 CNS and in the experiment on M14 melanoma was over 100 µM each time. The TGI in the experiment on EKVX NSCLC, in the experiment with NCI-H226 lung, with SR leukemia and with OVCAR-3 ovarian was over 100 µM each time.
